The target in one data set is T1, IDO1 (Homo sapiens, UniProt P14902).
T1 construct: a human cervical cancer cell line HeLa that endogenously expresses IDO1 upon IFN-γ treatment; endogenous in cells; host or cells: HeLa cells treated with human IFN-γ
In words: HeLa cell-based IDO1/kynurenine assay. The note with it: for inhibition at 30 µM: percentage inhibition at 30 μM, IFN-γ-treated HeLa cells, kynurenine in media; for IC50: HeLa cells, IFN-γ induced IDO1, kynurenine readout. On the procedure: (§1) The main bioassays performed in the study, including HeLa cell-based IDO1/kynurenine assay, Western blot analysis, T cell proliferation and Treg cell differentiation experiments, were carried out as described previously.
It is well known that IDO1 is broadly expressed in human cancers and is induced by pro-inflammatory cytokines, such as interferon gamma (IFN-γ) and tumour necrosis factor alpha (TNF-α)[41]. Here we utilised a human cervical cancer cell line HeLa that endogenously expresses IDO1 upon IFN-γ treatment to evaluate the IDO1 inhibitory activity of the synthesised compounds by measuring kynurenine secreted into the media. […] Thus, we also employed this cellular assay to detect false positive IDO1 inhibitors and cytotoxic compounds by measuring HeLa cell viability. Clinical candidate navoximod was used as an assay control.

A further data set deals with IDO1 protein expression. In words: Western blot of IDO1 protein expression in IFN-γ-treated HeLa cells. The note with it: HeLa cells, IFN-γ 100 ng/mL 24 h, then compounds at their IC50 concentrations for 24 h. The data set is classed as cell-based, human. The method, then: as §1
To exclude the possibility that these secondary sulphonamides inhibit IDO1 activity by down-regulating IDO1 expression, we utilised Western blot to measure the expression of IDO1 protein in HeLa cells treated with different compounds.
Figure 3. […] (B) The greyscale scanning statistical results of A. (C) HeLa cells were incubated with compound 5d (3, 10, 30 μM) for 24 h. (D) The greyscale scanning statistical results of C. (E) HeLa cells were incubated with compound 5d (3, 10, 30 μM) for 48 h. (F) The greyscale scanning statistical results of E. Data are presented as means ± SEM (n = 3).
On the technique in general: Immunoblotting shows a protein as a band on a membrane.

The record followed here is article PMC7336998, “Discovery of secondary sulphonamides as IDO1 inhibitors with potent antitumour effects in vivo” (Journal of Enzyme Inhibition and Medicinal Chemistry, 2020).

Usually melting point stands for the temperature of the solid-liquid transition. In general, inhibition refers to the drop in the measured response relative to a control, in per cent. One may read the IC50 as the concentration that inhibits the measured activity by half.

T1 sequence (P14902 whole entry): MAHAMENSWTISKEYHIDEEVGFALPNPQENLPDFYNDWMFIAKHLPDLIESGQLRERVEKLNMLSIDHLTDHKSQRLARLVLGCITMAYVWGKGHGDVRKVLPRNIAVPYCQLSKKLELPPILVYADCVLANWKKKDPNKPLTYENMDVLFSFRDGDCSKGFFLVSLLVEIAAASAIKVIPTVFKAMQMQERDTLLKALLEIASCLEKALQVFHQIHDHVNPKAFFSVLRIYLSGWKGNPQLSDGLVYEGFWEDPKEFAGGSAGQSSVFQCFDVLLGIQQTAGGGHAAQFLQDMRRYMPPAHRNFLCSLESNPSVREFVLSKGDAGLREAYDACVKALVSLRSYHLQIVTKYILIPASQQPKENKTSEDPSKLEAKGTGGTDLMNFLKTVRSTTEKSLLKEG

The compound `CC(=O)Nc1ccc(S(=O)(=O)Nc2ccccc2)cc1` [3a, N-(4-(N-Phenylsulfamoyl)phenyl)acetamide] showed a melting point of 204 to 206 °C. In addition, the inhibition at 30 µM against IDO1 was 3.9%.
Regarding `CC(=O)Nc1ccc(S(=O)(=O)Nc2ccc(C)cc2)cc1` [3b, N-(4-(N-(p-Tolyl)sulfamoyl)phenyl)acetamide], the inhibition at 30 µM on IDO1 was determined as 16.3%.
For the compound `CC(=O)Nc1ccc(S(=O)(=O)Nc2ccc(C(C)C)cc2)cc1` [3c, N-(4-(N-(4-Isopropylphenyl)sulfamoyl)phenyl)acetamide], the melting point lay in the range of 186 to 188 °C. The inhibition at 30 µM at IDO1 was determined as 5.9%.
In turn, `CC(=O)Nc1ccc(S(=O)(=O)Nc2cccc(C(C)C)c2)cc1` [3d, N-(4-(N-(3-Isopropylphenyl)sulfamoyl)phenyl)acetamide] had a melting point of 158 to 160 °C. The inhibition at 30 µM at IDO1 came out at 14.6%.
For the compound `CC(=O)Nc1ccc(S(=O)(=O)NCc2ccccc2)cc1` [3e, N-(4-(N-Benzylsulfamoyl)phenyl)acetamide], the inhibition at 30 µM against IDO1 came out at 2.5%.
`CC(=O)Nc1ccc(S(=O)(=O)NCc2ccc(Cl)cc2)cc1` [3f, N-(4-(N-(4-Chlorobenzyl)sulfamoyl)phenyl)acetamide] had a melting point of 172 to 174 °C. Also, the inhibition at 30 µM against IDO1 was 13.5%.
Taken in the same sequence, the figures for `CC(=O)Nc1ccc(S(=O)(=O)NCc2ccc(C(F)(F)F)cc2)cc1` [3g, N-(4-(N-(4-(Trifluoromethyl)benzyl)sulfamoyl)phenyl)acetamide] were 186 to 188 °C and 14.5%.
In the case of `CC(=O)Nc1ccc(S(=O)(=O)NCc2cccc(C(F)(F)F)c2)cc1` [3h, N-(4-(N-(3-(Trifluoromethyl)benzyl)sulfamoyl)phenyl)acetamide], the melting point was in the range of 154 to 156 °C. Also, on IDO1, the inhibition at 30 µM was 7.8%.
`CC(=O)Nc1ccc(S(=O)(=O)NCCc2ccccc2)cc1` [3i, N-(4-(N-Phenethylsulfamoyl)phenyl)acetamide]: the melting point was in the range of 130 to 132 °C. Besides, the inhibition at 30 µM against IDO1 came out at 5.9%.
On to `Nc1ccc(S(=O)(=O)Nc2ccccc2)cc1` [4a, 4-Amino-N-phenylbenzenesulfonamide], for which, on IDO1, the inhibition at 30 µM came to 12%.
For `Cc1ccc(NS(=O)(=O)c2ccc(N)cc2)cc1` [4b, 4-Amino-N-(p-tolyl)benzenesulfonamide], the inhibition at 30 µM on IDO1 turned out to be 10.8%.
Same read-out and setting: in the case of `Nc1ccc(S(=O)(=O)NCc2ccccc2)cc1` [4c, 4-Amino-N-benzylbenzenesulfonamide] it was 7.4%.
Regarding `Nc1ccc(S(=O)(=O)NCc2ccc(Cl)cc2)cc1` [4d, 4-Amino-N-(4-chlorobenzyl)benzenesulfonamide], the melting point was 172 to 174 °C. In addition, the inhibition at 30 µM against IDO1 was -4.2%.
`Nc1ccc(S(=O)(=O)NCc2cccc(Cl)c2)cc1` [4e, 4-Amino-N-(3-chlorobenzyl)benzenesulfonamide] had a melting point of 119 to 121 °C. Moreover, on IDO1, the half-maximal inhibitory concentration (IC50) is more than 50 µM and the inhibition at 30 µM was found to be 2.3%.
Take `Nc1ccc(S(=O)(=O)NCCc2ccccc2)cc1` [4f, 4-Amino-N-phenethylbenzenesulfonamide]: the inhibition at 30 µM against IDO1 is 3.1%.
Consider `C=CC(=O)Nc1ccc(S(=O)(=O)NCc2ccccc2)cc1` [5a, N-(4-(N-Benzylsulfamoyl)phenyl)acrylamide], for which the melting point fell in the range of 116 to 118 °C. In addition, at IDO1, the concentration for half-maximal inhibition (IC50) was 22.4 µM and the inhibition at 30 µM turned out to be 62.5%.
Taken in the same sequence, the figures for `C=CC(=O)Nc1ccc(S(=O)(=O)NCc2ccc(OC)cc2)cc1` [5b, N-(4-(N-(4-Methoxybenzyl)sulfamoyl)phenyl)acrylamide] were 156 to 158 °C, 40.1 µM and 36%.
In turn, `C=CC(=O)Nc1ccc(S(=O)(=O)NCc2ccc(Cl)cc2)cc1` [5c, N-(4-(N-(4-Chlorobenzyl)sulfamoyl)phenyl)acrylamide] had a melting point of 190 to 192 °C. Further, at IDO1, inhibition was half-maximal at 36.2 µM (IC50) and the inhibition at 30 µM was 40.4%.
Taken in the same sequence, the figures for `C=CC(=O)Nc1ccc(S(=O)(=O)NCCc2ccccc2)cc1` [5e, N-(4-(N-Phenethylsulfamoyl)phenyl)acrylamide] were 154 to 156 °C, 26.3 µM and 55.2%.
`C=CC(=O)Nc1ccc(S(=O)(=O)NCc2ccc(C(F)(F)F)cc2)cc1` [5f, N-(4-(N-(4-(Trifluoromethyl)benzyl)sulfamoyl)phenyl)acrylamide] had a melting point of 198 to 200 °C. For the same compound, on IDO1, half-maximal inhibition (IC50) was put at 39.2 µM and the inhibition at 30 µM stood at 38.2%.
The like results for `C=CC(=O)Nc1ccc(S(=O)(=O)NCc2cccc(C(F)(F)F)c2)cc1` [5g, N-(4-(N-(3-(Trifluoromethyl)benzyl)sulfamoyl)phenyl)acrylamide] were, in that order, 152 to 154 °C, 30.5 µM and 49.5%.
Taken in the same sequence, the figures for `C=CC(=O)Nc1ccc(S(=O)(=O)NCc2ccc(F)cc2)cc1` [5h, N-(4-(N-(4-Fluorobenzyl)sulfamoyl)phenyl)acrylamide] were 178 to 180 °C, 20.5 µM and 70.9%.
In turn, `C=CC(=O)Nc1ccc(S(=O)(=O)NCc2cccc(F)c2)cc1` [5i, N-(4-(N-(3-Fluorobenzyl)sulfamoyl)phenyl)acrylamide] returned a melting point of 152 to 154 °C. For the same compound, on IDO1, the IC50 is 39.5 µM and the inhibition at 30 µM came out at 37.8%.
Taken in the same sequence, the figures for `C=CC(=O)Nc1ccc(S(=O)(=O)NCc2ccccc2Cl)cc1` [5j, N-(4-(N-(2-Chlorobenzyl)sulfamoyl)phenyl)acrylamide] were 178 to 180 °C, 22.7 µM and 65.1%.
Taken in the same sequence, the figures for `C=CC(=O)Nc1ccc(S(=O)(=O)NCc2ccc(Br)cc2)cc1` [5k, N-(4-(N-(4-Bromobenzyl)sulfamoyl)phenyl)acrylamide] were 194 to 196 °C, 42.1 µM and 37.5%.
The like results for `C=CC(=O)Nc1ccc(S(=O)(=O)NCc2ccc(Cl)c(Cl)c2)cc1` [5m, N-(4-(N-(3,4-Dichlorobenzyl)sulfamoyl)phenyl)acrylamide] were, in that order, 148 to 150 °C, 37.3 µM and 44%.
The compound `C=CC(=O)Nc1ccc(S(=O)(=O)Nc2ccccc2)cc1` [8a, N-(4-(N-Phenylsulfamoyl)phenyl)acrylamide] returned a melting point of 212 to 213 °C. In addition, on IDO1, it took 13.2 µM to reach half-maximal inhibition (IC50) and the inhibition at 30 µM came to 85.9%.
Consider `C=CC(=O)Nc1ccc(S(=O)(=O)Nc2ccc(C)cc2)cc1` [8b, N-(4-(N-(p-Tolyl)sulfamoyl)phenyl)acrylamide], for which the melting point lay in the range of 230 to 232 °C. On IDO1, the inhibition at 30 µM came to 25.3%.
Taken in the same sequence, the figures for `C=CC(=O)Nc1ccc(S(=O)(=O)Nc2ccc(OC)cc2)cc1` [8c, N-(4-(N-(4-Methoxyphenyl)sulfamoyl)phenyl)acrylamide] were 234 to 235 °C and 20.9%.
`C=CC(=O)Nc1ccc(S(=O)(=O)Nc2cccc(OC)c2)cc1` [8d, N-(4-(N-(3-Methoxyphenyl)sulfamoyl)phenyl)acrylamide] had a melting point of 197 to 199 °C. Also, at IDO1, the midpoint of inhibition, the IC50, lay at 13.4 µM and the inhibition at 30 µM stood at 74.8%.
The like results for `C=CC(=O)Nc1ccc(S(=O)(=O)Nc2cccc(F)c2)cc1` [8e, N-(4-(N-(3-Fluorophenyl)sulfamoyl)phenyl)acrylamide] were, in that order, 212 to 215 °C, 17.7 µM and 69.7%.
On to `C=CC(=O)Nc1ccc(S(=O)(=O)Nc2cccc(Cl)c2)cc1` [8f, N-(4-(N-(3-Chlorophenyl)sulfamoyl)phenyl)acrylamide], for which the melting point lay in the range of 217 to 219 °C. The “expression of IDO1 protein” value in the data set on IDO1 protein expression is given as “did not influence IDO1 expression”. Besides, on IDO1, 9.48 µM corresponded to half-maximal inhibition (IC50) and the inhibition at 30 µM was determined as 89.5%.
`C=CC(=O)Nc1ccc(S(=O)(=O)Nc2ncccn2)cc1` [8h, N-(4-(N-(Pyrimidin-2-yl)sulfamoyl)phenyl)acrylamide] displayed a melting point of 229 to 230 °C. For the same compound, on IDO1, the inhibition at 30 µM came out at 16.4%.
The compound `C=CC(=O)Nc1ccc(S(=O)(=O)Nc2onc(C)c2C)cc1` [8i, N-(4-(N-(3,4-Dimethylisoxazol-5-yl)sulfamoyl)phenyl)acrylamide] showed a melting point of 206 to 208 °C. Besides, at IDO1, the inhibition at 30 µM was found to be 23.6%.
Taken in the same sequence, the figures for `C=CC(=O)Nc1ccc(S(=O)(=O)Nc2cc(C)on2)cc1` [8j, N-(4-(N-(5-Methylisoxazol-3-yl)sulfamoyl)phenyl)acrylamide] were 232 to 233 °C and 22.7%.
